Assay results: US6492387B2, “Isoindolyl and isoquinolinyl aroyl pyrrole compounds” (Ortho-McNeil Pharamaceutical, Inc., priority 2000, dated 2002)
Structures can show the parent of a compound that is named as a salt.

## COc1cc2c(cc1OC)CN(CC(=O)c1cc(C(=O)c3ccc(SC)cc3)n(C)c1)CC2 (as salt: hydrochloride) [Compound 4, 2-(3,4-dihydro-6,7-dimethoxy-2(1H)-isoquinolinyl)-1-[1-methyl-5-[4-(methylthio)benzoyl]-1H-pyrrol-3-yl]-ethanone]
  melting point: 231 to 233 °C
